Experimental data as given in patent US9375496B2, “Halogenated compounds for cancer imaging and treatment and methods for their use” (The University of British Columbia, priority 2013, dated 2016).

Experiments:
[1] = target: T1, AR (Homo sapiens, UniProt P10275, T878A); test: PSA(6.1 kb)-luciferase reporter assay in LNCaP cells (androgen-induced AR transcriptional activity); type: cell-based
T1 construct: LNCaP cells with endogenous AR; endogenous in cells; host or cells: LNCaP
T1 sequence (P10275 1-920 T878A): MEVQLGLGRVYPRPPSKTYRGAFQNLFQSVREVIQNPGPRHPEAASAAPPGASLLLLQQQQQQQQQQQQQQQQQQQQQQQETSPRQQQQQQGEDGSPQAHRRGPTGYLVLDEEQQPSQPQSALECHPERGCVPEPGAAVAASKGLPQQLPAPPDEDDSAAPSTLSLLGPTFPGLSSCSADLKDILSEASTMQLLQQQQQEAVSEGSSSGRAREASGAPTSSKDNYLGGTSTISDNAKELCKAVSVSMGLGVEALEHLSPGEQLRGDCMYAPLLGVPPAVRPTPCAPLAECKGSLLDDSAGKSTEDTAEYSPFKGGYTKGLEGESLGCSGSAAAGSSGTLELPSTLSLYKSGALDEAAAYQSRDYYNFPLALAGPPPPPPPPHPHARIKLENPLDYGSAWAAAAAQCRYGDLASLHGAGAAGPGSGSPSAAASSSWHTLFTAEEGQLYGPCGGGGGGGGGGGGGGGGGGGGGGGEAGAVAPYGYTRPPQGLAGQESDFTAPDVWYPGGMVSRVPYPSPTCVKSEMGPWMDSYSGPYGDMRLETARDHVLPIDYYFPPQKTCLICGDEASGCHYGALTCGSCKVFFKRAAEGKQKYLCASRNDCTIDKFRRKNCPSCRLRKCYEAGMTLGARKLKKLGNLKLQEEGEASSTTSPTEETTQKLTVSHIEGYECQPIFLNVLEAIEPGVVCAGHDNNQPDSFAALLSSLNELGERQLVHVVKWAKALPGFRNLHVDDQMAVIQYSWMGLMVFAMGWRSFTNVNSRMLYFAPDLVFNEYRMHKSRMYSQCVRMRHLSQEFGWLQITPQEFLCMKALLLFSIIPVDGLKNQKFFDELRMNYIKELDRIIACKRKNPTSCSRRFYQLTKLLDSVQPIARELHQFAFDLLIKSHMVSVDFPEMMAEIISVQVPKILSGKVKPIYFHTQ
Protocol: The PSA-luciferase (6.1 kb) reporter contains functional AREs to which AR binds in response to androgen to induce luciferase activity. LNCaP cells were transfected with the PSA(6.1 kb)-luciferase reporter for 24 h, and then treated with indicated concentration of 8d (also referred as EPI-iodide or iodinated EPI) with synthetic androgen, R1881 (1 nM) for 24 h. After 24 h of incubation with R1881, the cells were harvested, and relative luciferase activities were determined (FIG. 1A). To determine the IC50, treatments were normalized to the predicted maximal activity induction (in the absence of test compounds, vehicle only) (FIG. 1B).
To measure effect on AR, after the LNCaP cells were transfected with the PSA(6.1 kb)-luciferase reporter for 24 h, they were then treated with DMSO, 5 μM MDV3100, 25 μM Z (also referred to as EPI-002 or EPI), or 1.9 μM 8d with or without 1 nM R1881 for 24 h (FIG. 2A).
LNCaP cells were transiently transfected with PSA (6.1 kb)-luciferase for 24 h prior to pre-treatment with compounds of the invention (e.g., compounds 9d, 10d, 11d) ranging in concentration from 62.5 ng/ml to 1.5 ug/ml for 1 hour before the addition of vehicle, or synthetic androgen, R1881 (1 nM) to induce luciferase production. After 24 h of incubation with R1881, the cells were harvested, and relative luciferase activities were determined. To determine the IC50, treatments were normalized to the predicted maximal activity induction (in the absence of test compounds, vehicle only) (FIG. 1B).

[2] = target: T2, glucocorticoid receptor (GR) (Homo sapiens, UniProt P04150); test: GRE-luciferase reporter assay in LNCaP cells cotransfected with full-length human GR; type: cell-based; settings: 1.9 μM 8d, 10 nM dexamethasone, 48 h, LNCaP cells (FIG. 2C)
T2 construct: expression plasmids for full-length human GR; expressed in transfected cells; host or cells: LNCaP
T2 sequence (P04150 1-777): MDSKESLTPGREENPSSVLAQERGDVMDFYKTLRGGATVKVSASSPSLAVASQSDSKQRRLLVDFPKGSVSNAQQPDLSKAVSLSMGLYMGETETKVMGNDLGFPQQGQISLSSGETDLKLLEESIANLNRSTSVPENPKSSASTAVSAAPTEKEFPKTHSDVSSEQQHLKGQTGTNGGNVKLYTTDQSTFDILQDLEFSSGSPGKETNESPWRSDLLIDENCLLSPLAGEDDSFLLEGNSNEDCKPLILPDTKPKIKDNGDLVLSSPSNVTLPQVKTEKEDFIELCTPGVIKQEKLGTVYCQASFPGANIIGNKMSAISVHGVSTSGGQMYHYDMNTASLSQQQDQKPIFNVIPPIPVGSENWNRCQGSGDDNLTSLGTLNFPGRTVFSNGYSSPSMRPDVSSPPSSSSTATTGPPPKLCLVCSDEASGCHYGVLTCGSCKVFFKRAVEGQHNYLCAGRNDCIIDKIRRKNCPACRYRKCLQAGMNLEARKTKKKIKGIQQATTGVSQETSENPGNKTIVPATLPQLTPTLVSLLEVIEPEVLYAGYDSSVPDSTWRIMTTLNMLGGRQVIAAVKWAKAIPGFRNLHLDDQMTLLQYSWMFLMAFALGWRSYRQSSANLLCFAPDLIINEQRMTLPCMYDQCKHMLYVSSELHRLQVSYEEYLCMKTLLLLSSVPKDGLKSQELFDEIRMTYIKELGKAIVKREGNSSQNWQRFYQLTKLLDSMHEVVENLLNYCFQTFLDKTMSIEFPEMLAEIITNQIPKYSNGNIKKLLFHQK
Protocol: To assess specificity for the AR, parallel experiments were performed in LNCaP cells with endogenous AR and ectopic expression of other closely related human hormone receptors such as the progesterone receptor-beta (PRβ), glucocorticoid receptor (GR) and estrogen receptor-α (ER).

CC(C)(c1ccc(OC[C@H](O)CO)cc1)c1ccc(OC[C@H](O)CCl)c(I)c1 [Compound 8d, (R)-3-(4-(2-(4-((S)-3-chloro-2-hydroxypropoxy)-3-iodophenyl)propan-2-yl)phenoxy)propane-1,2-diol]
androgen-induced PSA luciferase activity ([1]; 1.9 μM 8d, 1 nM R1881, 24 h, LNCaP cells (FIG. 2A)): strongly inhibited | IC50 ([1]; LNCaP cells, PSA(6.1 kb)-luciferase, R1881 1 nM 24 h, representative experiment, read-out: IC50 for inhibition of AR transcriptional activity): 1170 ± 220 nM | GR activity (GRE-luciferase) [2]: not inhibited
